{"source": "patent US12728123B2", "about": "“Product” (Sesh Products Inc., priority 2012, dated 2026)", "conditions": "at a pH of about 8.8", "data": [{"smiles": "CN1CCCC1c1cccnc1", "note": "(stereo not shown) [nicotine]", "values": [{"measurement": "nicotine in the nonprotonated form", "result": "approximately 90%"}]}]}
